Results on 46 compounds are retold here after patent US9963462B2 (priority 2015, dated 2018).

As usually defined, the IC50 is the concentration that inhibits the measured activity by half.

The test system of test [1] is BH4 levels in SK-N-BE (2) cells. Put plainly: SKN-N-BE (2) cellular assay, BH4 levels by LC-MS. Format: cell-based. Particulars: Homo sapiens, SKNBE2, read-out: SK-N-BE(2) IC50, SK-N-BE (2) cells, BH4 levels by LC-MS.
For test [2], the target named is SNAP-hSPR (sepiapterin reductase, SPR) (Homo sapiens, UniProt P35270). The experiment in a line: biochemical. Type of test: binding. The following applies: terbium labelled SNAP-hSPR / SSZ labelled SNAP-EGFP; read-out: hTR-FRET IC50.
SNAP-hSPR (sepiapterin reductase, SPR), sequence (P35270 whole entry): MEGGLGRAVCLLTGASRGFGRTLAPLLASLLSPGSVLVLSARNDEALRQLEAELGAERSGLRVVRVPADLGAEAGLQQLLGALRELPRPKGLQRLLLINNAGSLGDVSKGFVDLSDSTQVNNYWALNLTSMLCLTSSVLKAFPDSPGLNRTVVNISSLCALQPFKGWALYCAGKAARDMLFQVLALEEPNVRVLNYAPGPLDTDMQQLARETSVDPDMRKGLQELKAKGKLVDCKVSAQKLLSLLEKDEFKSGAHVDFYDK
Test [3] has as its system BH4 production in human peripheral blood mononuclear cells (PBMCs). The experiment in a line: hPBMC assay, inhibition of BH4 production by LC-MS (anti-CD3/anti-CD28 stimulated). Format: cell-based. Particulars: PBMC, read-out: hPBMC IC50.
Description: hPBMC Assay: PBMCs were either purchased or isolated from fresh human blood and used either as a fresh preparation or frozen for later use. The assay system was prepared by pre-treating the assay plates overnight with a solution containing anti-human CD3 antibody. Human PBMCs were suspended in assay medium and plated into the assay plates at a density of 1-4×10^5 cells per well. The desired concentration of the test compound was added to each well. A solution of human anti-CD28 antibody was also added to each well. Plates were incubated for 12-48 hours at 37° C. and 5% CO2. Assay plates were centrifuged for 5-15 minutes at 1-3000 RMP and supernatants were removed. The cells were lysed, sealed and used directly or frozen at −80° C. LC-MS was used to quantify the amount of inhibition of BH4 production.
PBMCs were either purchased or isolated from fresh human blood and used either as a fresh preparation or frozen for later use. The assay system was prepared by pre-treating the assay plates overnight with a solution containing anti-human CD3 antibody. Human PBMCs were suspended in assay medium and plated into the assay plates at a density of 1-4×10^5 cells per well. The desired concentration of the test compound was added to each well. A solution of human anti-CD28 antibody was also added to each well. Plates are incubated for 12-48 hours at 37° C. and 5% CO2. Assay plates were centrifuged for 5-15 minutes at 1-3000 RMP and supernatants were removed. The cells were lysed, sealed and used directly or frozen at −80° C.

Turning to `Cc1c(C(=O)N2CC3C(C2)C3(C)C)cnn1-c1nn2cccc2c(=O)[nH]1` (stereo not drawn) [Q-0927], the results for the half-maximal inhibitory concentration (IC50) in test [1], in test [2] and in test [3] were 200 nM, 1 nM and 81 nM, respectively.
On to `Cc1c(C(=O)N2CCC3(CC2)CC3C(=O)N(C)C2CC2)cnn1-c1nn2cccc2c(=O)[nH]1` (stereo not drawn) [Q-0930], for which the IC50 in test [1] is 300 nM; in test [2], 1 nM; in test [3], 58 nM.
In the case of `Cc1c(C(=O)N2CC(N3CCC(F)(F)C3)C2)cnn1-c1nc2c(c(=O)[nH]1)CCC2` [Q-0937], the IC50 in test [1] turned out to be 800 nM; in test [2] it was 4 nM; in test [3] it was 130 nM.
With `Cc1c(C(=O)N2CCC(n3cccc3)CC2)cnn1-c1nn2cccc2c(=O)[nH]1` [Q-0941], the results for the IC50 in test [1], in test [2] and in test [3] were 300 nM, 1 nM and 13 nM, respectively.
With `Cc1c(C(=O)N2CCC(C3(C(F)(F)F)CC3)CC2)cnn1-c1nc2c(c(=O)[nH]1)CCC2` [Q-0943], the IC50 worked out at 18 nM in test [1], 2 nM in test [2] and 38 nM in test [3].
Regarding `Cc1c(C(=O)N2CCC(C3(C(F)(F)F)CC3)CC2)cnn1-c1nn2cccc2c(=O)[nH]1` [Q-0944], the IC50 in test [1] was determined as 28 nM; in test [2], 1 nM; in test [3] it was 36 nM.
On to `Cc1c(C(=O)N2CCC(C3(C#N)CC3)CC2)cnn1-c1nc2c(c(=O)[nH]1)CCC2` [Q-0948], for which the IC50 in test [1] was 100 nM; in test [2], 1 nM; in test [3] it was 53 nM.
The matching figures for `Cc1c(C(=O)N2CC3(CCN(CC(F)(F)F)CC3)C2)cnn1-c1nn2cccc2c(=O)[nH]1` [Q-0951]: 400 nM, 2 nM and 45 nM.
On to `Cc1c(C(=O)N2CCC(C#N)(c3ccccn3)CC2)cnn1-c1nn2cccc2c(=O)[nH]1` [Q-0952], for which the values for the IC50 in test [1], in test [2] and in test [3] were 300 nM, 1 nM and 83 nM, respectively.
For `Cc1c(C(=O)N2CCC(c3noc(C4CC4)n3)CC2)cnn1-c1nn2cccc2c(=O)[nH]1` [Q-0953], in that order: 58 nM, 1 nM and 21 nM.
As to `Cc1c(C(=O)N2CCN(C(C)C(F)(F)F)CC2)cnn1-c1nn2cccc2c(=O)[nH]1` (stereo not drawn) [Q-0956], the figures for the half-maximal inhibitory concentration (IC50) in test [1], in test [2] and in test [3] were 86 nM, 1 nM and 14 nM, respectively.
With `Cc1c(C(=O)N2CCC(c3nccs3)CC2)cnn1-c1nn2cccc2c(=O)[nH]1` [Q-0969], the concentration for half-maximal inhibition (IC50) in test [1] is 200 nM; in test [2], 1 nM; in test [3], 160 nM.
Regarding `Cc1c(C(=O)N2CC3CCCC(C2)N3C(=O)OC(C)(C)C)cnn1-c1nn2cccc2c(=O)[nH]1` [Q-0972], the figures for the half-inhibitory concentration (IC50) in test [1], in test [2] and in test [3] were 65 nM, 1 nM and 14 nM, respectively.
For `COC1(C)CCN(C(=O)c2cnn(-c3nn4cccc4c(=O)[nH]3)c2C)CC1` [Q-0973], in that order: 700 nM, 1 nM and 80 nM.
The matching figures for `Cc1c(C(=O)N2CCC(S(=O)(=O)C(C)C)CC2)cnn1-c1nn2cccc2c(=O)[nH]1` [Q-0977]: 500 nM, 1 nM and 86 nM.
Regarding `C=CCC(C#N)C1CCN(C(=O)c2cnn(-c3nn4cccc4c(=O)[nH]3)c2C)CC1` (stereo not drawn) [Q-0978], the IC50 in test [1] is 81 nM; in test [2], 1 nM; in test [3], 59 nM.
For the compound `Cc1c(C(=O)N2CCC(C#N)(CC(F)(F)F)CC2)cnn1-c1nn2cccc2c(=O)[nH]1` [Q-0986], the IC50 stood at 700 nM in test [1], 2 nM in test [2] and 110 nM in test [3].
`Cc1c(C(=O)N2CCCN(CC(F)(F)F)CC2)cnn1-c1nn2cccc2c(=O)[nH]1` [Q-0992]: the values for the 50% inhibitory concentration (IC50) in test [1], in test [2] and in test [3] were 800 nM, 3 nM and 98 nM, respectively.
In the case of `Cc1c(C(=O)N2CC(N3CCCC(F)(F)C3)C2)cnn1-c1nn2cccc2c(=O)[nH]1` [Q-0993], the 50% inhibitory concentration (IC50) in test [1] is 1100 nM; in test [2], 3 nM; in test [3] it was 160 nM.
For `Cc1c(C(=O)N2CCC(N3CCC(F)(F)CC3)CC2)cnn1-c1nn2cccc2c(=O)[nH]1` [Q-0995], in that order: 600 nM, 2 nM and 180 nM.
For the compound `Cc1c(C(=O)N2CCC3(CC2)CC(F)C3)cnn1-c1nn2cccc2c(=O)[nH]1` [Q-0998], the results for the IC50 in test [1], in test [2] and in test [3] were 300 nM, 1 nM and 92 nM, respectively.
In the case of `Cc1c(C(=O)N2CCC(c3cccnc3F)CC2)cnn1-c1nn2cccc2c(=O)[nH]1` [Q-1003], the IC50 in test [1] amounted to 100 nM; in test [2], 1 nM; in test [3], 51 nM.
Turning to `Cc1c(C(=O)N2CCC3(CC2)CC3)nnn1-c1nn2cccc2c(=O)[nH]1` [Q-1005], the IC50 is 300 nM in test [1], 1 nM in test [2] and 100 nM in test [3].
Take `Cc1c(C(=O)N2CCN(CC(F)(F)F)CC2)nnn1-c1nn2cccc2c(=O)[nH]1` [Q-1007]: the IC50 in test [1] amounted to 500 nM; in test [2], 1 nM; in test [3], 120 nM.
As to `Cc1c(C(=O)N2CCN(CC3CCC3)[C@H](C)C2)cnn1-c1nn2cccc2c(=O)[nH]1` [Q-1020], the half-maximal inhibitory concentration (IC50) is 300 nM in test [1], 2 nM in test [2] and 200 nM in test [3].
For `Cc1c(C(=O)N2CCN(C3CC3)CC2)cnn1-c1nc2c(c(=O)[nH]1)CCC2` [Q-1022], the half-inhibitory concentration (IC50) in test [1] is 100 nM; in test [2], 2 nM; in test [3] it was 41 nM.
In the case of `Cc1c(C(=O)N2CC3(C2)CC(F)(F)C3)nnn1-c1nn2cccc2c(=O)[nH]1` [Q-1024], the IC50 is 300 nM in test [1], 1 nM in test [2] and 56 nM in test [3].
As to `Cc1c(C(=O)N2C[C@@H]3C[C@H]2CN3Cc2ccccc2)cnn1-c1nn2cccc2c(=O)[nH]1` [Q-1033], the IC50 was found to be 400 nM in test [1], 8 nM in test [2] and 260 nM in test [3].
For the compound `Cc1c(C(=O)N2CC=C(C3(C#N)CC3)CC2)cnn1-c1nn2cccc2c(=O)[nH]1` [Q-1034], the IC50 is 200 nM in test [1], 2 nM in test [2] and 160 nM in test [3].
For `Cc1c(C(=O)N2CC(F)(c3ccccc3)C2)cnn1-c1nn2cccc2c(=O)[nH]1` [Q-1038], the concentration for half-maximal inhibition (IC50) in test [1] turned out to be 300 nM; in test [2], 2 nM; in test [3], 340 nM.
With `CC[C@H](C#N)C1CCN(C(=O)c2cnn(-c3nc4c(c(=O)[nH]3)CCC4)c2C)CC1` [Q-1041], the half-maximal inhibitory concentration (IC50) in test [1] stood at 46 nM; in test [2], 1 nM; in test [3], 28 nM.
Consider `Cc1c(C(=O)N2CCC(C(=O)N3CCCC3)(C(F)(F)F)CC2)cnn1-c1nn2cccc2c(=O)[nH]1` [Q-1046], for which the half-inhibitory concentration (IC50) amounted to 100 nM in test [1], 1 nM in test [2] and 83 nM in test [3].
Regarding `CCC(C#N)C1(F)CCN(C(=O)c2cnn(-c3nn4cccc4c(=O)[nH]3)c2C)CC1` (stereo not drawn) [Q-1047], the half-maximal inhibitory concentration (IC50) in test [1] came to 200 nM; in test [2] it was 1 nM; in test [3], 66 nM.
For `Cc1c(C(=O)N2CC3C(C2)C3(C)C)cnn1-c1nc2c(c(=O)[nH]1)CCC2` (stereo not drawn) [Q-1048], the values for the half-maximal inhibitory concentration (IC50) in test [1], in test [2] and in test [3] were 200 nM, 1 nM and 50 nM, respectively.
In the case of `Cc1c(C(=O)N2CCC(C(F)F)CC2)cnn1-c1nc2c(c(=O)[nH]1)CCC2` [Q-1049], the half-inhibitory concentration (IC50) in test [1] came to 72 nM; in test [2], 2 nM; in test [3], 25 nM.
As to `CCC(C1CCN(C(=O)c2cnn(-c3nn4cccc4c(=O)[nH]3)c2C)CC1)C(F)(F)F` (stereo not drawn) [Q-1051], the IC50 in test [1] came to 53 nM; in test [2], 1 nM; in test [3], 27 nM.
For `CCC(O)(C1CCN(C(=O)c2cnn(-c3nn4cccc4c(=O)[nH]3)c2C)CC1)C(F)(F)F` (stereo not drawn) [Q-1052], the IC50 turned out to be 44 nM in test [1], 1 nM in test [2] and 83 nM in test [3].
Turning to `CCC1(C#N)CC12CCN(C(=O)c1cnn(-c3nn4cccc4c(=O)[nH]3)c1C)CC2` (stereo not drawn) [Q-1053], the half-inhibitory concentration (IC50) in test [1] worked out at 200 nM; in test [2] it was 1 nM; in test [3], 230 nM.
The matching figures for `Cc1c(C(=O)N2CCN(C(C)C(F)(F)F)CC2)cnn1-c1nc2c(c(=O)[nH]1)CCC2` (stereo not drawn) [Q-1054]: 28 nM, 1 nM and 60 nM.
As for `CCC(C#N)C1(O)CCN(C(=O)c2cnn(-c3nn4cccc4c(=O)[nH]3)c2C)CC1` (stereo not drawn) [Q-1055], the IC50 in test [1] turned out to be 700 nM; in test [2], 1 nM; in test [3], 160 nM.
Take `Cc1c(C(=O)N2CCC(c3nc(-c4ccccc4)cs3)CC2)cnn1-c1nc2c(c(=O)[nH]1)CCC2` [Q-1056]: the IC50 in test [1] amounted to 16 nM; in test [2], 3 nM; in test [3], 55 nM.
On to `Cc1c(C(=O)N2CCC3(CC2)CC3C(=O)N2CCCCC2)cnn1-c1nn2cccc2c(=O)[nH]1` (stereo not drawn) [Q-1057], for which the IC50 in test [1] was 100 nM; in test [2], 1 nM; in test [3] it was 67 nM.
With `Cc1c(C(=O)N2CCC3(CC2)CC3C(=O)N2CCCCC2)cnn1-c1nc2c(c(=O)[nH]1)CCC2` (stereo not drawn) [Q-1058], the half-inhibitory concentration (IC50) in test [1] was determined as 93 nM; in test [2], 2 nM; in test [3] it was 150 nM.
Consider `Cc1c(C(=O)N2CCC(F)(C#N)C2)cnn1-c1nn2cccc2c(=O)[nH]1` (stereo not drawn) [Q-1059], for which the half-inhibitory concentration (IC50) in test [1] was 1300 nM; in test [2] it was 2 nM; in test [3] it was 2100 nM.
With `Cc1c(C(=O)N2CCN(CCC(F)(F)F)CC2)cnn1-c1nn2cccc2c(=O)[nH]1` [Q-1060], the figures for the IC50 in test [1], in test [2] and in test [3] were 200 nM, 2 nM and 220 nM, respectively.
The matching figures for `Cc1c(C(=O)N2CCC3(CC2)CC3C(=O)N2CCCC2)cnn1-c1nc2c(c(=O)[nH]1)CCC2` (stereo not drawn) [Q-1061]: 400 nM, 3 nM and 210 nM.
